Here are results for three molecules from patent US20260373497A1, “MOLECULAR MACHINES STIMULATE INTERCELLULAR CALCIUM WAVES AND CAUSE MUSCLE CONTRACTION” (William Marsh Rice University, priority 2022, published 2026).

A short description of series [1]: Extinction coefficient by UV-Vis. It counts as physicochemical. Particulars: UV-Vis in spectral-grade water, 16 μM. The protocol:
FIG. 13—Sample UV-Vis spectra of each MM taken at 16 μM in spectral-grade water.
Table 1. Properties of MM 1-4. Partition coefficients and total polar surface area were calculated using the molInspiration online calculator. milogP represents the logarithm of the partition coefficient between octanol and water, used to represent hydrophobicity (higher values are more hydrophobic). Rotation rates were provided using the thermodynamics of the thermal helix inversion step. MM structures provided for reference.

Another series concerns HEK293 cells. Kind of series: MM-induced intracellular calcium responses (Fluo-4) after 400 nm stimulation. It counts as cell-based. The protocol: To investigate cellular responses to the actuation of MM, live-cell calcium tracking were employed. HEK293 cells were treated with the fluorescent intracellular calcium indicator Fluo-4 and loaded with MM. The structures of the MM employed in this study are shown in FIG. 1B, and the calcium responses of cells treated with fast-rotating MM 1 are shown in FIG. 1C. […] In the presence of the vehicle only, no calcium responses were evoked by the same laser treatment (FIG. 2).
Cell Culture and Preparation of Cells for Microscopy: HEK293 cells were chosen as the principal model system due to their prevalence in electrophysiological interrogation. […] HEK293 cells, HeLa cells, and N2A cells were cultured in DMEM (10% FBS, 1% penicillin/streptomycin) and passaged at <90% confluence. To grow cardiomyocytes, a dissColved rat heart (TransnetYX©) was triturated, centrifuged, and resuspended in cardiomyocyte growth medium (TransnetYX© catalog #SKU-NBCG) and seeded at a concentration of 60,000 cells cm^−2. Growth substrates were pre-treated with 1% gelatin solution for 3 h, then washed with PBS. Cardiomyocytes were allowed to grow for 4 days, after which the growth medium was exchanged for cardiomyocyte maintenance medium (TransnetYX© catalog #SKU-NBCM). Experiments were conducted from day 4 to day 6.
Imaging was conducted in imaging extracellular buffer (iECB; 119 mM NaCl, 5 mM KCl, 10 mM HEPES, 2 mM CaCl2, 1 mM MgCl2 (pH 7.2); 320 mOsm). Imaging in calcium-free medium was conducted in phosphate-buffered saline. Cells were prepared for imaging by seeding a 35 mm Ibidi imaging dish with ~50,000 cells in 1 mL of DMEM, and grown at 37 °C, 5% CO2 for 2 days. Prior to imaging, cells were incubated with dyes and/or molecules resuspended in complete growth medium at the appropriate concentration (MM 1 (8 μM), MM 2 (8 μM), MM 3 (24 μM), MM 4 (8 μM), Fluo-4 (2 μM)). MM and Fluo-4 were loaded into cells for 45 min. Cells treated with thapsigargin were exposed for 30 min after MM and Fluo-4 loading. Cells treated with organelle-targeting dyes were exposed for 5 min after MM loading. Ruthenium red and Gd^3+ were included in the imaging medium during stimulation and were associated with cells for 10 min prior to imaging. At the end of incubation, this medium was replaced with the iECB. Unless otherwise specified, all experiments were replicated in triplicate.
In Vitro Imaging and Stimulation: Cells were loaded in a Nikon A1-Rsi confocal system mounted on a widefield Ti-E fluorescence microscope. Imaging was conducted using a 60× water immersion objective (NA of 1.27, 0.17 mm working distance). Green fluorophores (Fluo-4, MitoTracker Green) were excited using a 488 nm photodiode laser. Red fluorophores (ER-Tracker-Red, PI) were excited using a 561 nm photodiode laser. Deep red fluorophores (cellMask plasma membrane stain) were excited using a 630 nm photodiode laser. Laser stimulation for in vitro experiments was performed with a 400 nm photodiode laser (Coherent OBIS™ LX SF) operating in a fluorescence-recovery-after-photobleaching (FRAP) experiment mode, delivering up to 6.4×10^2 W cm^−2 at sample level. Unless otherwise specified, all experiments were conducted using a stimulus irradiance of 3.2×10^2 W cm^−2. Cardiomyocyte experiments were conducted using a stimulus irradiance of 5.1×10^2 W cm^−2. Power was calibrated using a Thor Labs S130C laser power meter. Stimulation was targeted to a circular area of diameter 5 μm in a 250 ms pulse, during which the laser rasters across the entire region of interest. […] Fluo-4 fluorescence was collected for 30 s before and 2 min after stimulation. Images were collected using a Galvano scanner operating at 0.94 fps. In selected experiments, images were also collected using a resonant scanner operating at 7.7 fps.
Data Analysis—In Vitro: Data were analyzed using custom-written Python scripts. Fluorescence traces of calcium indicator Fluo-4 from cells were imported and processed via the Pandas library. […]

Where [2] appears, read: 8 μM MM, 400 nm, 3.2×10^2 W cm^−2, 250 ms.

“Also recorded” adds a separate entry of the source.

As for `CN(C)CCNc1ccc2c(c1)Sc1ccccc1C2=C1CCc2ccc3ccccc3c21` [MM 4], the “Extinction Coeff @ 400 nm” value in series [1] is ~13,000 L mol^−1cm^−1. The “Intracellular calcium response (Fluo-4)” value with HEK293 cells (setting [2]) was “elicited only small changes in calcium concentration; also recorded: elicited inconsistent and weak responses”.
On to `CC1Cc2cc(NCCN(C)C)c3ccccc3c2C1=C1c2ccccc2-c2ccccc21` (stereo not drawn) [MM 3], for which, in series [1], the “Extinction Coeff @ 400 nm” value was ~7,500 L mol^−1cm^−1. Besides, in the series with HEK293 cells (MM 3 at 24 μM, 6.4×10^2 W cm^−2), the “Intracellular calcium response (Fluo-4)” value is listed as “elicited no change in calcium activity upon irradiation; also recorded: did not elicit any noticeable responses in vitro”.
Consider `CC1Cc2ccc3ccccc3c2C1=C1c2ccccc2Sc2cc(NCCN(C)C)ccc21` (stereo not drawn) [MM 1], for which the “Extinction Coeff @ 400 nm” value in series [1] is ~11,000 L mol^−1cm^−1. Besides, in the series with HEK293 cells (setting [2]), the “Intracellular calcium response (Fluo-4)” value is given as “increased Fluo-4 fluorescence in the targeted cell; also recorded: elicited rapid increases in intracellular calcium; also recorded: elicited the strongest signaling responses in vitro”. Also, in the series on HEK293 cells (8 μM, 400 nm light, 250 ms), the “Decay kinetics of calcium response” value was “decayed over the next minute” and the “Time to peak of calcium transient after stimulation” value lay in the range of 10 to 20 s. Besides, the “Repeatability of calcium responses” value in the series on HEK293 cells (3.2×10^2 W cm^−2, 250 ms, multiple stimulations) is reported as “repeatable”. Also, the “Light power dependence of calcium response” value in the series on HEK293 cells (250 ms pulse, 5 μm diameter) is “higher response amplitude at higher irradiance”. Also, the “Propagation of calcium response to adjacent cells” value with HEK293 cells (MM 1, 400 nm light) is on record as “Calcium responses were observed to propagate to adjacent cells”. In addition, the “Signal amplitude compared with other MM” value in the series with HEK293 cells (MM 1 vs MM 2) was “reached a higher amplitude than those elicited by MM 2”.
